# Test results from patent US20250127857A1, “A COMPOSITION COMPRISING IL-36 AND/OR IL-18 FOR USE IN TREATING OCULAR DISORDERS” (THE PROVOST, FELLOWS, FOUNDATION SCHOLARS, & THE OTHER …, priority 2021, published 2025).
# Experiments:
# [1] = molecular target: T1, IL-18BP (Homo sapiens, UniProt O95998); settings: 1:1 stoichiometry; used for free IL-18 calculation (Migliorini et al., 2010); read-out: dissociation constant (Kd) of the IL-18/IL-18BP complex; cited from earlier work
# T1 sequence (O95998 31-194): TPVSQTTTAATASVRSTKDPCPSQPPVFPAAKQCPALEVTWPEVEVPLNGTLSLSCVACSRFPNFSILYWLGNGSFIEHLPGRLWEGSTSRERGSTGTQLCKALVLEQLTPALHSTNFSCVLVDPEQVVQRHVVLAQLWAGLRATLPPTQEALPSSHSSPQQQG
# [2] = tested on: VEGF; test: VEGF secretion by primary human foetal RPE (hfRPE) cells; type: cell-based; settings: IL-18 1000 ng/ml, 1-72 hours
# Description: FIG. 14 illustrates IL-18 can inhibit VEGF secretion in vivo and in vitro, wherein JR5558 mice at 3 weeks (A) were injected (i.p.) with saline (0 μg/kg) or IL-18 (100 μg/kg) on 4 consecutive days (day 1-4), wherein retinas were isolated on day 8 and VEGF concentration in protein lysates was determined using an appropriate ELISA, wherein data are presented as mean±SEM (n=4-5 animals per each treatment group) and expressed as pg of VEGF per mg of total retinal protein as measured by the BCA assay, *p<0.05 by one-way ANOVA with Tukey post test compared to saline controls; (B) is primary human foetal RPE (hfRPE) cells were treated with control medium (0 ng/ml) or a single dose of IL-18 (1000 ng/ml) for 1 to 72 hours, wherein VEGF concentration in the cell-free supernatants was measured at each time point, wherein rate of VEGF secretion was calculated from the slope of linear regression of VEGF concentration (pg/ml) against time (hours) (C), wherein data are presented as mean±SEM and represent a single experiment carried out in triplicate *p<0.05, ***p<0.001 by Student's t test compared to control at each time point;
# [3] = tested on: laser induced CNV in WT mice; test: Fibrovascular scarring after laser induced CNV, 14 days; type: in vivo, mouse; settings: IL-18 0.3ng/eye intravitreally, vs vehicle control
# Description: FIG. 24 illustrates IL-18 reduces the area of fibrovascular scarring, wherein WT mice underwent laser induced CNV and were injected intravitreally with IL-18 (0.3ng/eye), wherein 14 days later eyes were enucleated, flatmounts were stained with F4/80, vimentin and isolectin and imaged by confocal microscopy; and […]
# [4] = tested on: HRMEC; test: Wound healing (scratch) assay in HRMEC, IL-18; type: cell-based, human; settings: for mean difference in wound closure vs no treatment (xdiff): IL-18, VEGF, bFGF each 50 ng/ml, closure expressed as % closure
# Description: FIG. 16 illustrates HRMEC migration in response to IL-18 and IL-1α stimulation, wherein confluent HRMEC monolayers were scratched with a pipette tip and treated with IL-18 (50 ng/ml) or IL-1α (10 ng/ml) along with bFGF (50 ng/ml) or VEGF (50 ng/ml) as positive controls, wherein images were taken immediately following scratch (0 hrs) and at 4, 8 and 24 hours following scratch, wherein images were analysed using ImageJ imaging software, wherein data are presented as mean±SEM of 6 separate experiments in triplicate, wherein data were analysed using 2way ANOVA with Dunnett's multiple comparison test. (*p<0.05, *p<0.01, ****p<0.0001);
# Cells were seeded on to a 12-well plate and grown until they reached confluency. 24 hours prior to the scratch, culture medium was replaced with 0.5% Serum media without supplements for 24 hours to induce cell quiescence. Cell monolayers were scratched once down the centre of the well using a p200 pipette tip and washed once with warmed DPBS to remove debris then replaced with 0.5% serum supplemented media with experimental treatments. Images were acquired using an Olympus IX51 inverted microscope with Cell^A imaging software (Olympus). Images were taken at baseline immediately following scratch and at suitable timepoints for up to 24 (HRMECs) or 48 hours (BMVECs). The area within the scratch was quantified using ImageJ software, and each timepoint was normalised to its baseline and expressed as % closure.
# [5] = tested on: VEGF; test: VEGF in HOCFs treated with IL-18; type: cell-based, human; settings: IL-18 100 ng/ml over 24 h
# Description: FIG. 20 illustrates IL-18 activates human ocular choroidal fibroblasts and inhibits VEGF secretion, wherein (A) is human ocular choroidal fibroblast (HOCFs) treated with IL-18 at increasing doses for 8 h, wherein cells were fixed and stained with antibody targeting intermediate filament vimentin (red), Hoechst (blue) and phalloidin (green); (B) is HOCFs treated with IL-18 (100 ng/ml) over 60 mins and immunoblotted for phospho-ERK and phospo-p65 with B-actin and GAPDH as controls; (C) is HOCFs treated with IL-18 (100 ng/ml) over 24 h as indicated, wherein cells were analysed for VEGF expression by qPCR (D) is HOCFs treated with 10, 100 or 1000 ng/ml of IL-18 as indicated over 48 h and cell death was analysed by LDH assay;
substance,measurement,setting,value
IL-18: recombinant human IL-18 (SB-485232; GSK),Kd,[1],0.4 nM
same,VEGF concentration in cell-free supernatants,[2],decreased VEGF concentration at (almost) all time points examined
same,overall rate of VEGF secretion,[2],significantly slowed down the overall rate of VEGF secretion
same,vimentin positive staining (area of fibrovascular scarring),[3],less vimentin positive staining
same,mean difference in wound closure vs no treatment (xdiff),[4]; 8 hours post scratch,−0.99
same,mean difference in wound closure vs no treatment (xdiff),[4]; 24 hours post scratch,−12.58
same,rate of wound closure,"[4]; IL-18 50 ng/ml, vs no treatment control",significantly increased the rate of wound closure
same,baseline secretion of VEGF from HOCFs,[5],strongly reduces the baseline secretion of VEGF
